This passage reports concentration results from patent EP1102746B1, “SUBSTITUTED PHENYLAMIDINES WITH ANTITHROMBOTIC ACTION” (Boehringer Ingelheim Pharma GmbH & Co.KG, priority 1998, dated 2000).

A short description of the data set: Plasma concentration of Verbindung A after oral administration to rhesus monkeys (determined by 3H-BIBU 52 ligand displacement on human platelets against a calibration curve). In kind it is in vivo, Rhesusaffen. The settings on record: rhesus monkey, oral 1 mg/kg, Rhesusaffe, concentration of Verbindung A measured. The procedure: Beispielsweise wurde die Konzentration der Verbindung A nach oraler Gabe der Verbindungen der Beispiele 1 (Verbindung B) und 1(1) (Verbindung C) der vorliegenden Erfindung im Plasma bestimmt und mit der Plasmakonzentration der Verbindung A nach oraler Gabe der Verbindung A verglichen.
Nach oraler Gabe von 1 mg/kg der zu untersuchenden Verbindungen am Rhesusaffen wird die Konzentration der Verbindung A im Plasma 4, 8, 12 und 24 Stunden nach Substanzgabe gemessen. Hierzu wird das Rhesusplasma mit einer Suspension von Humanthrombozyten in Plasma und ^3H-BIBU 52 (siehe DE-A-4,214,245) als Ligand inkubiert. Der freie und gebundene Ligand wird durch Zentrifugation getrennt und durch Szintillationszählung quantitativ bestimmt. Aus der Menge des gebundenen Liganden wird anhand einer Eichkurve die Konzentration der Verbindung A errechnet.
Dazu wird aus einer Antikubitalvene Spenderblut entnommen und mit Trinatriumzitrat antikoaguliert (Endkonzentration: 13 mMol/l). Das Blut wird 10 Minuten bei 170 x g zentrifugiert und das überstehende plättchenreiche Plasma (PRP) abgenommen. Das Restblut wird noch einmal bei 3200 x g scharf abzentrifugiert und das überstehende plättchenarme Plasma (PPP) abgenommen.
Für die Eichkurve zur Berechnung der Konzentration wird zu 995 µl PPP 5 µl Lösung der Verbindung A zugesetzt (Endkonzentration 5000 nMol/l). Aus dieser Plasmaprobe werden mit PPP weitere Plasmaproben verdünnt bis zu einer Endkonzentration von 2,5 nMol/l.
Zu 150 µl Plasmaprobe vom Rhesusaffen oder Eichkurvenplasma werden 10 µl ^3H-BIBU 52 (Endkonzentration 10 nMol/l), 10 µl ^14C-Sucrose (370 Bq) und 80 µl PRP gegeben und bei Raumtemperatur 20 Minuten inkubiert. Anschließend werden die Proben 5 Minuten bei 2000 x g zentrifugiert und der Überstand abgezogen. 100 µl des Überstandes werden versetzt mit 100 µl NaOH 0,2 Mol/l, 15 µl HCl 5 Mol/l und 2 ml Szintillator und die ^3H- und ^14C-Radioaktivität quantitativ gemessen. Das Pellet wird in 200 µl NaOH 0,2 Mol/l gelöst. 180 µl davon werden versetzt mit 15 µl HCl 5 Mol/l und 2 ml Szintillator und die ^3H- und ^14C-Radioaktivität gemessen. Das im Pellet noch verbliebene Restplasma wird aus dem ^14C-Gehalt bestimmt und abgezogen. Die Menge des gebundenen Liganden wird aus dem ^3H-Gehalt bestimmt. Die Menge des gebundenen Liganden wird gegen die Konzentration des Eichkurvenplasmas aufgetragen. Die Konzentration der Verbindung A im Rhesusplasma wird aus der Menge des gebundenen Liganden in der betreffenden Plasmaprobe im Vergleich mit der Eichkurve errechnet.
Die nachfolgende Tabelle enthält die gefundenen Werte: […]

For `N=C(N)c1ccc(NC(=O)CCC2CCN(CC(=O)O)CC2)cc1` [Verbindung A, 4-[2-[(4-Amidinophenyl)aminocarbonyl]ethyl]-1-carboxymethyl-piperidin], where the note is “4 h after dosing, read-out: Konz. von A in [nM], 4h”, the concentration at 4 h was found to be 174 nM. The concentration at 8 h (8 h after dosing, read-out: Konz. von A in [nM], 8h) was determined as 38 nM. Also, where the note is “12 h after dosing, read-out: Konz. von A in [nM], 12h”, the concentration at 12 h turned out to be 25 nM. The concentration at 24 h (24 h after dosing, read-out: Konz. von A in [nM], 24h) is 3 nM.
